O=C(O)c1cccc(C(=O)O)c1
solubility (mole fraction) (in ethanol, 283.15 K): 0.00328
solubility (mole fraction) (in ethanol, 288.15 K): 0.00369
solubility (mole fraction) (in ethanol, 293.15 K): 0.00406
solubility (mole fraction) (in ethanol, 298.15 K): 0.00451
solubility (mole fraction) (in ethanol, 303.15 K): 0.005
solubility (mole fraction) (in ethanol, 308.15 K): 0.00559
solubility (mole fraction) (in ethanol, 313.15 K): 0.00616
solubility (mole fraction) (in ethanol, 318.15 K): 0.00682
solubility (mole fraction) (in ethanol, 323.15 K): 0.00752
solubility (mole fraction) (in methanol, 283.15 K): 0.00269
solubility (mole fraction) (in methanol, 288.15 K): 0.00304
solubility (mole fraction) (in methanol, 293.15 K): 0.00342
solubility (mole fraction) (in methanol, 298.15 K): 0.00376
solubility (mole fraction) (in methanol, 303.15 K): 0.00422
solubility (mole fraction) (in methanol, 308.15 K): 0.00473
solubility (mole fraction) (in methanol, 313.15 K): 0.00527
solubility (mole fraction) (in methanol, 318.15 K): 0.0059
solubility (mole fraction) (in methanol, 323.15 K): 0.00654
solubility (mole fraction) (in n-propanol, 283.15 K): 0.00287
solubility (mole fraction) (in n-propanol, 288.15 K): 0.0032
solubility (mole fraction) (in n-propanol, 293.15 K): 0.00362
solubility (mole fraction) (in n-propanol, 298.15 K): 0.00415
solubility (mole fraction) (in n-propanol, 303.15 K): 0.00472
solubility (mole fraction) (in n-propanol, 308.15 K): 0.00533
solubility (mole fraction) (in n-propanol, 313.15 K): 0.00603
solubility (mole fraction) (in n-propanol, 318.15 K): 0.00689
solubility (mole fraction) (in n-propanol, 323.15 K): 0.00774
